Source: patent publication EP4741389A1, “KAT6 INHIBITOR” (Shanghai Qilu Pharmaceutical Research and Development …, priority 2023, dated 2025)

How the values were obtained:
[1] = Body weight changes and tolerability in the ZR-75-1 xenograft study; type: in vivo, Mouse; conditions: result in words; for body weight changes: differences among the groups, FIG. 1
Method: (§1) • Species: Mouse; • Strain: BALB/c nude mice; • Age and weight: 6-8 weeks old, weighing 19-26 grams; • Gender: Female; • Supplier: GemPharmatech Co., Ltd.; • Compound source: Compound A: [drawing 190] prepared with reference to patent CN114364672A.
(§2) A mixture containing 10×10^6 ZR-75-1 cells in 100 µL PBS and 100 µL Matrigel (final volume was 200 µL) was subcutaneously implanted into the right dorsal side (upper side) of each mouse. On day 18 after cell implantation, when the average tumor volume reached 138 mm^3, grouping and administration were initiated. Mice with tumor volumes ranging from 100 to 212 mm^3 were selected for the study. Mice were randomly assigned to groups based on body weight and tumor volume, with 7 mice per group. The day of grouping was designated as PG-D0, and administration for all groups started from PG-D0.
The effects of the test drugs Compound 2, Compound 5-P2, Compound 3, and Compound A on the body weight of the female BALB/c nude mouse model with subcutaneously implanted human breast cancer ZR-75-1 cell xenografts are shown in FIG. 1.

[2] = test system: human breast cancer ZR-75-1 cell xenografts; assay: In vivo efficacy study in BALB/c nude mouse model with subcutaneous ZR-75-1 xenografts; conditions: for T/C / TGI / Tumor Volume: 0.3 mg/kg; for T/C / TGI: based on tumor volume on day 21 post-administration; for Tumor Volume: day 21 post-administration, female BALB/c nude mice, 7 per group
Description: IV. In vivo efficacy study of test drug Compound 2, Compound 5-P2, Compound 3, and Compound A in a BALB/c nude mouse model with subcutaneously implanted human breast cancer ZR-75-1 cell xenografts
The objective of this experiment is to evaluate the in vivo efficacy of the test drug Compound 2, Compound 5-P2, Compound 3, and Compound A in a BALB/c nude mouse model with subcutaneously implanted human breast cancer ZR-75-1 cell xenografts.
as §1
Human breast cancer ZR-75-1 (ATCC, CRL-1500) cells were cultured in vitro as adherent cultures. The culture conditions were: 1640 medium supplemented with 10 vol% FBS, 100 U/mL penicillin, and 100 µg/mL streptomycin, incubated in a 37°C, 5% CO2 cell culture incubator. Routine passaging was performed twice a week. When cell confluence reached 80%-90% and the cell number met the requirements, cells were harvested, counted, and inoculated.
Three days before cell implantation, a 17β-estrogen pellet (0.36 mg) was implanted into the left dorsal side of each mouse. Starting one week after pellet implantation, animals were urinated 2-3 times per week. If necessary, animals were urinated daily.
as §2
The experimental index is to investigate whether tumor growth is inhibited, delayed, or cured. Tumor diameters were measured three times per week using a vernier caliper. Tumor volume was calculated using the formula: V = 0.5a × b^2, where a and b represent the major and minor diameters of the tumor, respectively.
The anti-tumor efficacy of the compounds was evaluated using TGI (%) or the relative tumor proliferation rate T/C (%). TGI (%), reflects the tumor growth inhibition rate. TGI (%) was calculated as: TGI (%) = [1 - (Mean tumor volume of a treatment group at the end of administration - Mean tumor volume of the same treatment group at the start of administration) / (Mean tumor volume of the vehicle control group at the end of treatment - Mean tumor volume of the vehicle control group at the start of treatment)] × 100%.
Relative Tumor Proliferation Rate T/C (%): The calculation formula is as follows: T/C% = TRTV / CRTV ×100 % (TRTV: RTV of the treatment group; CRTV: RTV of the negative control group). The relative tumor volume (RTV) was calculated based on tumor measurement results using the formula RTV = Vt /V0, where V0 is the tumor volume of each mouse measured at the start of grouping and administration (i.e., d0), and Vt is the tumor volume of each mouse at a specific measurement time. The mean value for each group was then calculated. V0 and Vt correspond to tumor volume data from the same mouse.

KAT6B = target: T1, KAT6B (Homo sapiens, UniProt Q8WYB5); assay: KATs acetyltransferase enzyme activity assay (TR-FRET), KAT6B; type: biochemical; conditions: Biotin-H3 (1-21) and AcCOA, 90 minutes at room temperature
T1 construct: purchased Active Motif 81224
T1 sequence (Q8WYB5 whole entry): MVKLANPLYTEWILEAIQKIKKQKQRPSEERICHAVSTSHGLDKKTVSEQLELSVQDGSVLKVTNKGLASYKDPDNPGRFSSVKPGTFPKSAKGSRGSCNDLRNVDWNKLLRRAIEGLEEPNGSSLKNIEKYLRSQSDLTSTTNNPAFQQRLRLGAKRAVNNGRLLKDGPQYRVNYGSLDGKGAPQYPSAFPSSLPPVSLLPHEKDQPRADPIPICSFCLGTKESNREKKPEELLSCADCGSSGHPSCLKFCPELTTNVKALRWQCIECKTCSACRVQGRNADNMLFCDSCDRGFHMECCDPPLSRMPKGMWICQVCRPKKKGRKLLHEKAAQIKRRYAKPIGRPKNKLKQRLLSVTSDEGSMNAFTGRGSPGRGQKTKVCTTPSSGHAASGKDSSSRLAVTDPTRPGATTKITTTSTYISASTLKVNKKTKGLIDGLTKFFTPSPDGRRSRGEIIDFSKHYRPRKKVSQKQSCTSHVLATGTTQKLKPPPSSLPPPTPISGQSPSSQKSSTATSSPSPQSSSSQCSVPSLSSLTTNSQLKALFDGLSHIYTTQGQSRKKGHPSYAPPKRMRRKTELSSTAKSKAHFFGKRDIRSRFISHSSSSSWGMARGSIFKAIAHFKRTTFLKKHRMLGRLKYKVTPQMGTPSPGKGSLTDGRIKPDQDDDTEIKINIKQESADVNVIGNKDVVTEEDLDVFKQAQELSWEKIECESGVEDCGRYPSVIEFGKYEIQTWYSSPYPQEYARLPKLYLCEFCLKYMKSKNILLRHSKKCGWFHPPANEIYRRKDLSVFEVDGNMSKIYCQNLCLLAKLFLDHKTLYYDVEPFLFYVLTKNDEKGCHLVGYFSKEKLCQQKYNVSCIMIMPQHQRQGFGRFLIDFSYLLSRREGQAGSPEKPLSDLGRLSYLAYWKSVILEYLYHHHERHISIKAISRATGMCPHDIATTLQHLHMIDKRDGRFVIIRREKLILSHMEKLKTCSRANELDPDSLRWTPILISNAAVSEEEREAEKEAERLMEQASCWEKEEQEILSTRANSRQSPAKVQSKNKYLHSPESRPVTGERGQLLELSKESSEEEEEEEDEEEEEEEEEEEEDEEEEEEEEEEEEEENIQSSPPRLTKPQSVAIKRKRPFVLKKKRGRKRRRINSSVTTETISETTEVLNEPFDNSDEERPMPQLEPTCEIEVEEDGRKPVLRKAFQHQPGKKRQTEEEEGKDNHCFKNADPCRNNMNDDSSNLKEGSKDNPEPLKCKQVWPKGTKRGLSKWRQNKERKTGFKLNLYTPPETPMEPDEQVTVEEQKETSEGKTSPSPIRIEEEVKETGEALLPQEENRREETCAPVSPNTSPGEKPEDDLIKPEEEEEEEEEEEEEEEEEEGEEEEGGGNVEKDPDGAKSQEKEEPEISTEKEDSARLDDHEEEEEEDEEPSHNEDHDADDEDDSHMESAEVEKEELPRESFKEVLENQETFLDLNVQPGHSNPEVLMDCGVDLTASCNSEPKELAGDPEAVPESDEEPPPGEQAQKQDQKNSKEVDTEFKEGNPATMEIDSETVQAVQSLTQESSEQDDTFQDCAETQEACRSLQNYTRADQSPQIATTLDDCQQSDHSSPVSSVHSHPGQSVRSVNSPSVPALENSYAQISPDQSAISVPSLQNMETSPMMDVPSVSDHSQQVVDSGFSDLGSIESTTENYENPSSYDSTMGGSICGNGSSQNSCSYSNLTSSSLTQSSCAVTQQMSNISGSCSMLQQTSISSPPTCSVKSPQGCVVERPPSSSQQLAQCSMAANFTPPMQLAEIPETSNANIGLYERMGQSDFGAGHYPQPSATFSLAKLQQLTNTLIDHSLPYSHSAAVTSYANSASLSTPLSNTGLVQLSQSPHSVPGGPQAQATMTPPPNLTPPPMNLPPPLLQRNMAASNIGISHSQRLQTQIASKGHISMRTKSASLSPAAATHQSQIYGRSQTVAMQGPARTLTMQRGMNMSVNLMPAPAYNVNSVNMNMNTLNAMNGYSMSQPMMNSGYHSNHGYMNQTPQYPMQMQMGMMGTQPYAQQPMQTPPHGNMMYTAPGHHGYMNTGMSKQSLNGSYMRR
Method in brief: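 TR-FRET assay in Tris-HCl buffer: enzyme preincubated with compound 15 min at room temperature, then biotin-H3(1-21) peptide and acetyl-CoA added for 90 min at room temperature. Acetylation detected with Eu-anti-acetyl-histone H4 lysine antibody and ULight-streptavidin (60 min), 665/620 nm ratio; IC50 from four-parameter logistic fit.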

KAT6A = target: T2, KAT6A (Homo sapiens, UniProt Q92794); assay: KATs acetyltransferase enzyme activity assay (TR-FRET), KAT6A; type: biochemical; conditions: Biotin-H3 (1-21) and AcCOA, 90 minutes at room temperature
T2 construct: purchased Active Motif 81223
T2 sequence (Q92794 488-778 limits assumed): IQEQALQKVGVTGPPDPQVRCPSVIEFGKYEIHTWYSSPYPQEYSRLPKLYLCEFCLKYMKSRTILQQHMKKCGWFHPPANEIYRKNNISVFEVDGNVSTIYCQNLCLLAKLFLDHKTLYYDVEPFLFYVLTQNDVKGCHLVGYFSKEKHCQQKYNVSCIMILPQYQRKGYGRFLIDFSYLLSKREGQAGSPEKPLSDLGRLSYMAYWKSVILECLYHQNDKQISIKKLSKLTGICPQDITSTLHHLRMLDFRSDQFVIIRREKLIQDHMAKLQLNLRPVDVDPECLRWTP

With COc1ccccc1S(=O)(=O)Nc1noc2cc(Cn3cccn3)cc(OC)c12 [Compound A, reference compound] the body weight changes [1] was “not significant”, the T/C [2] was 33.17% and the TGI [2] was 80.40%. For the same compound, the “Tumor Volume” value [2] was 278 ± 44 mm^3.
With COc1ccc2c(c1S(=O)(=O)Nc1noc3cc(Cn4cccn4)cc(OC)c13)OCC21CC1 [Compound 3, N-(6-((1H-Pyrazol-1-yl)methyl)-4-methoxybenzo[d]isoxazol-3-yl)-6-methoxy-2H-spiro[benzofuran-3,1'-cyclopropane]-7-sulfonamide] the IC50 (KAT6B) was 7.5 nM, the IC50 (KAT6A) was 1.8 nM and the body weight changes [1] was “not significant”. For the same compound, the “tolerability in tumor-bearing mice” value ([1]; human breast cancer ZR-75-1 model) was “tolerated”, the T/C [2] was 12.95% and the TGI [2] was 104.47%. For the same compound, the “Tumor Volume” value [2] was 106 ± 12 mm^3 and the anti-tumor effects ([2]; ZR-75-1 xenograft model, tumor growth curves FIG. 2, result in words) was “more significant anti-tumor effects compared to Compound A”.
